Read-outs that look alike come from different tables or passages of the source.
How the values were obtained:
HT1080 8 #cells = assay: Cell competitive binding assay against ^177Lu-radiolabeled FAPi-46
Protocol: (1) HT1080 8 #cells in the logarithmic growth phase were prepared into a cell suspension, and the cell density was adjusted to 1×10^4/mL. 1 mL of the suspension was seeded into a 24-well cell culture plate. The plate was incubated overnight in a 37° C. incubator.
(2) The cell culture medium was aspirated, and the cells were washed once with PBS, followed by the addition of 975 μL of additive-free medium.
(3) To each well, 25 µL of ^177Lu-radiolabeled FAPi-46 (Nanchang Tanzhen Biotechnology Co., Ltd., CAS: 2374782-04-2) at a fixed concentration (final concentration in culture medium: 1.35 μCi/mL) and varying concentrations (final concentrations in culture medium: 1000 ng/mL, 100 ng/ml, 10 ng/ml, 1 ng/mL, 0.1 ng/ml, 0.01 ng/mL, 0.001 ng/mL, 0 ng/ml) of unlabeled test compounds JHH8, JHDB8, and JHH9 were added.
(4) The mixture was incubated on ice for 2 hours.
(5) The cells were washed three times with ice-cold PBS.
(6) The cells were lysed with 0.5 mL of 1 M sodium hydroxide, washed twice with 0.5 mL of PBS, and the sodium hydroxide solution (0.5 mL) and PBS solutions (0.5 mL×2) were collected for uptake counting.
The control compound was OncoFAP-DOTAGA (structural formula: […]
The cell competitive binding of compounds JHH5, JHH4, JHH10, JHH8, H4b, H5b, and H8b was tested in the same batch using the above method, and the experimental results are shown in Table 3 and FIG. 3.

FAP protein = molecular target: T1, FAP protein (Homo sapiens, UniProt Q12884); assay: Biacore test of ligand binding to FAP protein; settings: FAP protein on SA chip, 15° C., 1:1 binding model
T1 construct: purchased Sinobiological
T1 sequence (Q12884 1-760): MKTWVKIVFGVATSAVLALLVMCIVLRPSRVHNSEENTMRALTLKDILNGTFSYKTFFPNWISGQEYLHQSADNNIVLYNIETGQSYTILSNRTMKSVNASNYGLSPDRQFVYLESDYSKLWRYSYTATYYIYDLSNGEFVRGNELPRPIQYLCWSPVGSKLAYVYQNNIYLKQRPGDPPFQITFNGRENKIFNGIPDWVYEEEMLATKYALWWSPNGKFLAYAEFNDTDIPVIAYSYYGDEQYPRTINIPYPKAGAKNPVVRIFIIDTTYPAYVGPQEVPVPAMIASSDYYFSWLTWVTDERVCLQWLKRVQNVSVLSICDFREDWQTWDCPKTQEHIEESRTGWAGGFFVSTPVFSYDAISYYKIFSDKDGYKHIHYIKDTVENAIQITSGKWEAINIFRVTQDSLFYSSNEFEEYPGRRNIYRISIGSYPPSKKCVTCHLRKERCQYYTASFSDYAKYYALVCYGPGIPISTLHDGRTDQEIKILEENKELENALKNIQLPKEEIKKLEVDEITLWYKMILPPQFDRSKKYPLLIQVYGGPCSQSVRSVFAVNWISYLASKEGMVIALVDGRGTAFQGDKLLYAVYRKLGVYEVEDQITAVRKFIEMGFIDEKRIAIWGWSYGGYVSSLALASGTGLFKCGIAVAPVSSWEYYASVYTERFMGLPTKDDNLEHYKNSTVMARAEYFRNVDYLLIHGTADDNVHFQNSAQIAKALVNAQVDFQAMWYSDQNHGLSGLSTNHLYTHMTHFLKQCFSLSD
Protocol: The Biacore 8K (Cytiva) instrument was used to detect ligand binding of the FAP protein (Sinobiological). The FAP protein was captured on the SA chip. Before ligand immobilization (flow paths 1 and 2, flow rate of 10 μL/min), the FAP protein (10 μg/mL, flow rate of 5 μL/min, injection time of 600 s) was immobilized on flow path 2 using running buffer, and the sensor surface was conditioned with three consecutive injections of 1 M NaCl in 50 mM NaOH. After each ligand injection, additional washing was carried out with isopropanol in 1 M NaCl and 50 mM NaOH (flow paths 1 and 2, flow rate of 10 μL/min, injection time of 60 s).
The test compounds were dissolved in 100% dimethyl sulfoxide and diluted to 10 mM, then further diluted in the assay buffer (PBS, pH 7.4, 1 mM TCEP ([…]), 0.05% P20, 2% dimethyl sulfoxide) to appropriate maximum concentrations. The analyte was run under the following conditions: analysis temperature=15° C., analysis step=all set to LMW kinetics; cycle type=single cycle (90 s contact time, 1800 s dissociation time, 30 μL/min flow rate, flow channels 1, 2); flow channel detection=2-1). Data evaluation was performed using Biacore Insight Evaluation Software, and the data were fitted to a 1:1 binding model.
The Biacore results are shown in Table 1: pKD=−Log KD, where KD is the binding affinity of the compound to the FAP protein as measured by Biacore. The binding affinity is expressed by KD (M)=Kd(1/s)/Ka(1/Ms). Where A: pKD>8, B: 7<pKD<8, C: 6<pKD<7, D: pKD<6.

HT1080 2 #FAP cells = assay: Tissue distribution in FAP-positive tumor-bearing mice; assay type: in vivo, mice (Balb/c Nude); settings: 24 hours after tail vein injection, approximately 3.7 MBq/mouse
Source text: Tissue distribution in FAP-positive tumor-bearing mice: 2×10^6 HT1080 2 #FAP cells (in 50% Matrigel, Corning) were subcutaneously inoculated into the right shoulder of mice (Balb/c Nude, Vital River) aged approximately 6-9 weeks. When the tumors grew to approximately 150-350 mm^3 in size, the following “7. General ^177Lu Labeling Experimental Method” was used to label JHH3, JHH8, JHH9, JHDB7, and JHDB8 compounds. Subsequently, ^177Lu-JHH3, ^177Lu-JHH8, ^177Lu-JHH9, ^177Lu-JHDB7, ^177Lu-JHDB8, and ^177Lu-OncoFAP DOTAGA radiolabeled compounds were injected into the mice via the tail vein (approximately 3.7 MBq/mouse). 24 hours after administration, the animals were euthanized by CO2 inhalation, and blood and organs (liver, kidney, muscle, tumor) were collected after euthanasia.
After organ collection, the samples were rinsed twice with deionized water and dried, then placed in pre-weighed tubes and weighed again to calculate the sample weight. The samples were measured on the day of collection. All blood samples and tissue samples were measured for radioactive counts using a gamma counter.

[1] = EC50 (ng/mL) converted with molecular weight, read-out: EC50
[2] = competition with ^177Lu-FAPi-46, on ice 2 hours

Row | uptake in other organs compared to the reference compound (HT1080 2 #FAP cells) | uptake in tumor tissues compared to the reference compound (HT1080 2 #FAP cells) | Compound | EC50 (HT1080 8 #cells; [1]) [nM] | EC50 (HT1080 8 #cells; [2]) [ng/mL] | Kd (FAP protein) [nM]
1 | – | – | N#C[C@@H]1CC(F)(F)CC1C(=O)CNC(=O)c1ccc2c(c1)CCCN2C(=O)CCC(=O)NCCNC(=O)CCC(C(=O)O)N1CCN(CC(=O)O)CCN(CC(=O)O)CCN(CC(=O)O)CC1 (some centres unmarked) [JHH8] | 14.5 | 13.77 | < 10
2 | – | – | N#C[C@@H]1CC(F)(F)CN1C(=O)CNC(=O)c1cccc2c1CCCN2C(=O)CCC(=O)NCCNC(=O)CCC(C(=O)O)N1CCN(CC(=O)O)CCN(CC(=O)O)CCN(CC(=O)O)CC1 (some centres unmarked) [JHH10] | 3.56 | 3.38 | < 10
3 | lower uptake in other organs | higher uptake in tumor tissues | N#C[C@@H]1CC(F)(F)CN1C(=O)CNC(=O)c1cc2c(s1)CCN(C(=O)CCC(=O)NCCNC(=O)CCC(C(=O)O)N1CCN(CC(=O)O)CCN(CC(=O)O)CCN(CC(=O)O)CC1)C2 (some centres unmarked) [^177Lu-JHH3, metal not drawn] | – | – | –

Reference: patent publication US20260226049A1, “NITROGEN-CONTAINING HETEROCYCLIC COMPOUND, PREPARATION METHOD THEREFOR, AND USE THEREOF” (BIVISION PHARMACEUTICALS, INC, priority 2023, published 2026)
